Measurements published in patent US20230203060A1 (GENFLEET THERAPEUTICS (SHANGHAI) INC., priority 2020, published 2023).

Target: T1, KRAS G12C (Homo sapiens, UniProt P01116, G12C)
T1 construct: purchased Reactionbiology
Experiment: KRAS G12C NEA-HTRF experiment (SOS1-catalyzed displacement of GDP by GTP)
Format: biochemical
In short: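 His-tagged KRAS G12C preloaded with DY647-GDP was preincubated 15 min at 20 °C with compound, then exchanged with SOS1 (0.2 μM working solution) and GTP (200 μM working solution) for 2 h at 20 °C in the dark. HTRF 665/615 nm ratio with anti-His-Tb was normalised to T0 and no-compound controls; IC50 by four-parameter fit.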

T1 sequence (P01116 1-188 isoform P01116-2 G12C): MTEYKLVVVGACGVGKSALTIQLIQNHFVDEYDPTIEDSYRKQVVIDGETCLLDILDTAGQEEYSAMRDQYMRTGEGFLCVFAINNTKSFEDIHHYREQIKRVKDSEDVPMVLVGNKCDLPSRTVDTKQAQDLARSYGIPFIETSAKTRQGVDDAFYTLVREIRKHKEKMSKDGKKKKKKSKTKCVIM

IC50	SMILES
15 nM	C=CC(=O)N1CCN2C(=O)c3c(N4CC(N(C)CC(F)(F)F)CC4(C)C)nc(-c4ccccc4F)c(Cl)c3OC[C@H]2C1 (mixture of isomers) [Z491a, (6aR)-8-acryloyl-4-chloro-1-(2,2-dimethyl-4-(methyl(2,2,2-trifluoroethyl)amino)pyrrolidin-1-yl)-3-(2-fluorophenyl)-6,6a,7,8,9,10-hexahydro-12H-pyrazino[2,1-c]pyrido[3,4-f][1,4]oxazepin-12-one]
31 nM	C=CC(=O)N1CCN2C(=O)c3c(N4C[C@H](N(C)CCOC)CC4(C)C)nc(-c4ccccc4F)c(Cl)c3OC[C@H]2C1 (single isomer, unassigned) [Z406-1]
120 nM	C=CC(=O)N1CCN2C(=O)c3c(N4CC(N(C)C)CC4(C)C)nc(-c4ccccc4F)c(Cl)c3OC[C@H]2C1 (single isomer, unassigned) [Z453-2]
73 nM	C=CC(=O)N1CCN2C(=O)c3c(N4C[C@@H](N5CCC5)CC4(C)C)nc(-c4ccccc4F)c(Cl)c3OC[C@H]2C1 (single isomer, unassigned) [Z471-1]
461 nM	C=CC(=O)N1CCN2C(=O)c3c(N4C[C@H](N5CCC5)CC4(C)C)nc(-c4ccccc4F)c(Cl)c3OC[C@H]2C1 (single isomer, unassigned) [Z471-2]
145 nM	C=CC(=O)N1CCN2C(=O)c3c(N4C[C@@H](N(C)C)CC4(C)C)nc(-c4cccc(C)c4F)c(Cl)c3OC[C@H]2C1 (single isomer, unassigned) [Z472-1]
60 nM	C=CC(=O)N1CCN2C(=O)c3c(N4C[C@H](N(C)C)CC4(C)C)nc(-c4cccc(C)c4F)c(Cl)c3OC[C@H]2C1 (single isomer, unassigned) [Z472-2]
76.8 nM	C=CC(=O)N1CCN2C(=O)c3c(N4CC(N(C)C)CC4(C)C)nc(-c4cccc(F)c4F)c(Cl)c3OC[C@H]2C1 (single isomer, unassigned) [Z473-2]
79.3 nM	C=CC(=O)N1CCN2C(=O)c3c(N4C[C@H](N(C)C)CC4(C)C)nc(-c4c(F)ccc(F)c4O)c(Cl)c3OC[C@H]2C1 (single isomer, unassigned) [Z475-2]
15 nM	C=CC(=O)N1CCN2C(=O)c3c(N4C[C@@H](N(C)CC(F)(F)F)CC4(C)C)nc(-c4ccccc4F)c(Cl)c3OC[C@H]2C1 (single isomer, unassigned) [Z491]
125 nM	C=CC(=O)N1CCN2C(=O)c3c(N4C[C@H](N(C)CC(F)(F)F)CC4(C)C)nc(-c4ccccc4F)c(Cl)c3OC[C@H]2C1 (single isomer, unassigned) [Z493]
406 nM	C=CC(=O)N1CCN2C(=O)c3c(N4C[C@@H](N(C)C)CC4(C)C)nc(-c4ccccc4)c(Cl)c3OC[C@H]2C1 (single isomer, unassigned) [Z655-1]
23.8 nM	C=CC(=O)N1CCN2C(=O)c3c(N4C[C@@H](N(C)CCO)CC4(C)C)nc(-c4ccccc4F)c(Cl)c3OC[C@H]2C1 (single isomer, unassigned) [Z658-1]
142 nM	C=CC(=O)N1CCN2C(=O)c3c(N4C[C@H](N(C)CCO)CC4(C)C)nc(-c4ccccc4F)c(Cl)c3OC[C@H]2C1 (single isomer, unassigned) [Z658-2]
77.2 nM	C=CC(=O)N1CCN2C(=O)c3c(N4C[C@@H](N(C)CC(F)F)CC4(C)C)nc(-c4ccccc4F)c(Cl)c3OC[C@H]2C1 (single isomer, unassigned) [Z659-1]
9.3 nM	C=CC(=O)N1CCN2C(=O)c3c(N4CC(N(C)CC(F)F)CC4(C)C)nc(-c4ccccc4F)c(Cl)c3OCC2C1 (single isomer, unassigned) [Z659-2]
11.3 nM	C=CC(=O)N1CCN2C(=O)c3c(N4C[C@@H](N(C)CCF)CC4(C)C)nc(-c4ccccc4F)c(Cl)c3OC[C@H]2C1 (single isomer, unassigned) [Z660-1]
33.5 nM	C=CC(=O)N1CCN2C(=O)c3c(N4C[C@@H](NC)CC4(C)C)nc(-c4ccccc4F)c(Cl)c3OC[C@H]2C1 (single isomer, unassigned) [Z661-1]

The remaining lines, values behind:

SMILES	IC50
C=CC(=O)N1CCN2C(=O)c3c(N4C[C@@H](O)CC4(C)C)nc(-c4ccccc4F)c(F)c3OC[C@H]2C1 (single isomer, unassigned) [Z408-1]	159 nM
C=CC(=O)N1CCN2C(=O)c3c(N4CC(O)CC4(C)C)nc(-c4c(F)cccc4OC)c(F)c3OC[C@H]2C1 (single isomer, unassigned) [Z450]	147 nM
C=CC(=O)N1CCN2C(=O)c3c(N4C[C@@H](N5CCN(C)CC5)CC4(C)C)nc(-c4ccccc4F)c(Cl)c3OC[C@H]2C1 (single isomer, unassigned) [Z454-1]	9.3 nM
C=CC(=O)N1CCN2C(=O)c3c(N4C[C@H](N5CCN(C)CC5)CC4(C)C)nc(-c4ccccc4F)c(Cl)c3OC[C@H]2C1 (single isomer, unassigned) [Z454-2]	35.5 nM
C=CC(=O)N1CCN2C(=O)c3c(N4C[C@@H](C(=O)O)CC4(C)C)nc(-c4c(O)cccc4F)c(Cl)c3OC[C@H]2C1 (single isomer, unassigned) [Z458-1]	8.8 nM
C=CC(=O)N1CCN2C(=O)c3c(N4CCN(C)[C@@H](C)[C@H]4C)nc(-c4ccccc4F)c(Cl)c3OC[C@H]2C1 (single isomer, unassigned) [Z465-1]	144 nM
C=CC(=O)N1CCN2C(=O)c3c(N4CC(N5CCOCC5)CC4(C)C)nc(-c4ccccc4F)c(Cl)c3OC[C@H]2C1 (single isomer, unassigned) [Z468-1]	35 nM
C=CC(=O)N1CCN2C(=O)c3c(N4C[C@@H](N5CCN(C)CC5)CC4(C)C)nc(-c4c(O)cccc4F)c(Cl)c3OC[C@H]2C1 (single isomer, unassigned) [Z469-1]	5 nM
C=CC(=O)N1CCN2C(=O)c3c(N4C[C@H](N5CCN(C)CC5)CC4(C)C)nc(-c4c(O)cccc4F)c(Cl)c3OC[C@H]2C1 (single isomer, unassigned) [Z469-2]	18 nM
C=CC(=O)N1CCN2C(=O)c3c(N4C[C@@H](N5CCN(C)CC5)CC4(C)C)nc(-c4ccccc4F)c(F)c3OC[C@H]2C1 (single isomer, unassigned) [Z474-1]	89 nM
C=CC(=O)N1CCN2C(=O)c3c(N4C[C@H](N5CC(F)(F)C5)CC4(C)C)nc(-c4ccccc4F)c(Cl)c3OC[C@H]2C1 (single isomer, unassigned) [Z525-1]	365 nM
C=CC(=O)N1CCN2C(=O)c3c(N4C[C@@H](N5CC(F)(F)C5)CC4(C)C)nc(-c4ccccc4F)c(Cl)c3OC[C@H]2C1 (single isomer, unassigned) [Z525-2]	38.5 nM
C=CC(=O)N1CCN2C(=O)c3c(N4C[C@H](N5CC(C(F)(F)F)C5)CC4(C)C)nc(-c4ccccc4F)c(Cl)c3OC[C@H]2C1 (single isomer, unassigned) [Z608-1]	610 nM
C=CC(=O)N1CCN2C(=O)c3c(N4C[C@@H](N5CCN(C)CC5)CC4(C)C)nc(-c4c(F)cccc4Cl)c(Cl)c3OC[C@H]2C1 (single isomer, unassigned) [Z635-1]	22.7 nM
C=CC(=O)N1CCN2C(=O)c3c(N4C[C@H](N5CCN(C)CC5)CC4(C)C)nc(-c4c(F)cccc4Cl)c(Cl)c3OC[C@H]2C1 (single isomer, unassigned) [Z635-2]	113 nM
C=CC(=O)N1CCN2C(=O)c3c(N4C[C@H](N5CC(C#N)C5)CC4(C)C)nc(-c4ccccc4F)c(Cl)c3OC[C@H]2C1 (single isomer, unassigned) [Z637-1]	343 nM
C=CC(=O)N1CCN2C(=O)c3c(N4C[C@@H](N5CC(C#N)C5)CC4(C)C)nc(-c4ccccc4F)c(Cl)c3OC[C@H]2C1 (single isomer, unassigned) [Z637-2]	23.8 nM
